pIC50: −log10 of the molar value. The source made the active and inactive calls. The rule behind the calls is not given here.
Assays:
in vitro = conditions: CD1, mouse, liver microsomes
Gamma-secretase = test: Modulatory activity of gamma secretase in human SKNBE2 cells assessed as decrease in Abeta42 levels incubated for 6 hrs by sandwich ELISA; assay type: cell-based
[1] = Drug concentration in ddY mouse plasma at 30 mg/kg, po measured after 3 hrs by LC-MS/MS analysis; assay type: ADME, organism-based
Mus musculus [2] = test: In vivo modulatory activity of gamma secretase in ddY mouse assessed as reduction in Abeta42 levels in brain at 30 mg/kg, po measured after 3 hrs by ELISA relative to control; assay type: functional
[3] = Ratio of drug concentration in ddY mouse brain to IC50 for gamma secretase in human SKNBE2 cells assessed as decrease in Abeta42 levels incubated for 6 hrs by sandwich ELISA; assay type: ADME, cell-based
[4] = […], ratio of drug concentration in brain to plasma at steady state in ddY mouse at 30 mg/kg, po by LC-MS/MS analysis; assay type: ADME, organism-based
[5] = Drug concentration in ddY mouse brain at 30 mg/kg, po measured after 3 hrs by LC-MS/MS analysis; assay type: ADME, organism-based; conditions: read-out: Ct
CYP3A4 [6] = target: T1, CYP3A4 (Homo sapiens, UniProt P08684); test: Inhibition of CYP3A4 in human liver microsomes assessed as residual activity at 5 uM using midazolam as substrate measured after 20 mins by LC-MS/MS analysis relative to control; assay type: ADME; conditions: probe midazolam, read-out: Activity
Mus musculus [7] = test: In vivo modulatory activity of gamma secretase in ddY mouse assessed as reduction in Abeta42 levels in plasma at 30 mg/kg, po measured after 3 hrs by ELISA relative to control; assay type: functional
[8] = target: Gamma-secretase (Homo sapiens) (UniProt Q96BI3+Q9NZ42+Q8WW43+P49768+Q92542+P49810); test: Inhibition of gamma-secretase in human H4 cells overexpressing human wild-type APP assessed as beta-CTF level incubated for 24 hrs by ELISA; assay type: cell-based
CYP3A4 [9] = target: T1, CYP3A4; test: Inhibition of CYP3A4 in human liver microsomes assessed as residual activity at 5 uM using midazolam as substrate preincubated with enzyme for 30 mins followed by incubation with substrate for 20 mins by LC-MS/MS analysis relative to control; assay type: ADME; conditions: probe midazolam, read-out: Activity

T1 sequence (P08684 whole entry): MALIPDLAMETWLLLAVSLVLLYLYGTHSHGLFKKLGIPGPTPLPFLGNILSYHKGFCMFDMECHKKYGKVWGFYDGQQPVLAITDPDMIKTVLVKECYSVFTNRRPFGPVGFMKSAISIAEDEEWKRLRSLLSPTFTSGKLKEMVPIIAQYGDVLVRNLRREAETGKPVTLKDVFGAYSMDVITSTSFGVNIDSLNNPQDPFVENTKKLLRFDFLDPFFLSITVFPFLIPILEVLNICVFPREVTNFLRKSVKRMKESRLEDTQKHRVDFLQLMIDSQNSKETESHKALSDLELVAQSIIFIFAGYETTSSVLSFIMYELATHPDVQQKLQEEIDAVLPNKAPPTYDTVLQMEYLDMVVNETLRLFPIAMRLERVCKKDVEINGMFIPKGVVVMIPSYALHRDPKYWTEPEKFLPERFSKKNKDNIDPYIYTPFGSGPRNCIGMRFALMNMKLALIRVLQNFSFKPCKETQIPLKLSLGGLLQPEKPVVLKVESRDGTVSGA

microsomal CLint at 0.75 h, 0.2 µM (in vitro)	pIC50 (Gamma-secretase)	Structure (SMILES)	also measured
318 µL/min/mg	–	CCNC(=O)c1ccc(-c2c(C#N)nc3c(OCc4ccccc4)cccn23)cn1	–
295 µL/min/mg	6.62	CCNC(=O)c1ccc(-c2c(C)nc3c(OCc4cccc(F)c4)cccn23)cn1	–
> 1000 µL/min/mg	6.41	CCNC(=O)c1ccc(-c2c(C)nc3c(OCc4ccccc4-c4ccccc4)cccn23)cn1	–
652 µL/min/mg	–	CCNC(=O)c1ccc(-c2c(C)nc3c(OCc4ccc(C)cc4C)cccn23)cn1	–
438 µL/min/mg	6.43	CCNC(=O)c1ccc(-c2c(C)nc3c(OCc4ccc(C)cc4)cccn23)cn1	–
367 µL/min/mg	7.21	CCNC(=O)c1ccc(-c2c(C)nc3c(OCc4cccc(-c5ccccc5)c4)cccn23)cn1.Cl	concentration at 3 h [1]: 6.6 µM; inhibition in vivo at 30 mg/kg (Mus musculus [2]): 6%; Ratio [3]: 12 nmol/g/uM; Kp [4]: 0.12; concentration at 3 h [5]: 0.77 µM
350 µL/min/mg	5.21	CCNC(=O)c1ccc(-c2c(COC)nc3c(OCc4ccccc4)cccn23)cn1	–
84.7 µL/min/mg	7.04	CCNC(=O)c1ccc(-c2c(C)nc3c(OCc4ccc(-c5ccccc5)cc4)cccn23)cn1.Cl	concentration at 3 h [1]: 10 µM; inhibition in vivo at 30 mg/kg (Mus musculus [2]): 36%; Ratio [3]: 51 nmol/g/uM; activity at 20 min, 5 µM (CYP3A4 [6]): 101%; inhibition in vivo at 30 mg/kg (Mus musculus [7]): 66%; inhibition [8]: inactive; Kp [4]: 0.45; activity at 20 min, 5 µM (CYP3A4 [9]): 83%; concentration at 3 h [5]: 4.6 µM
> 1000 µL/min/mg	5.96	CCNC(=O)c1ccc(-c2c(C)nc3c(OCCc4ccccc4)cccn23)cn1	–
49.9 µL/min/mg	–	CCNC(=O)c1ccc(-c2c(C)nc3c(OCc4ccc(-n5cncn5)cc4)cccn23)cn1	–
324 µL/min/mg	6.24	CCNC(=O)c1ccc(-c2c(C)nc3c(OCc4ccccc4)cccn23)cn1	–
–	–	CCN1Cc2cc(-c3c(C)nc4c(OCc5ccccc5)cccn34)ccc2C1=O.Cl	inhibition in vivo at 30 mg/kg (Mus musculus [2]): 2%; Ratio [3]: 1.8 nmol/g/uM; Kp [4]: 0.72
500 µL/min/mg	< 4.30	CCNC(=O)c1ccc(-c2c(C)nc3c(OCc4ccccc4)cccn23)cc1F	–
228 µL/min/mg	6.82	CCNC(=O)c1ccc(-c2c(C)nc3c(OCc4ccccc4F)cccn23)cn1.Cl	concentration at 3 h [1]: 2.7 µM; inhibition in vivo at 30 mg/kg (Mus musculus [2]): 6%; Ratio [3]: 5 nmol/g/uM; inhibition in vivo at 30 mg/kg (Mus musculus [7]): 16%; Kp [4]: 0.27; concentration at 3 h [5]: 0.75 µM
> 1000 µL/min/mg	6.77	CCNC(=O)c1ccc(-c2c(C)nc3c(OCc4c(C)cc(C)cc4C)cccn23)cn1	–
> 1000 µL/min/mg	< 5.70	CCN1C(=O)c2ccc(-c3c(C)nc4c(OCc5ccccc5)cccn34)cc2C1(C)C	–
–	< 4.30	CCN1CCc2cc(-c3c(C)nc4c(OCc5ccccc5)cccn34)ccc2C1=O	–
77.9 µL/min/mg	< 5.00	CCNC(=O)c1ccc(-c2c(C)nc3c(OCc4cccc(C(=O)N(C)C)c4)cccn23)cn1	–
75.7 µL/min/mg	–	CCNC(=O)c1ccc(-c2c(CO)nc3c(OCc4ccccc4)cccn23)cn1	–
